Reference: paper PMC8667045, “Into Deep Water: Optimizing BCL6 Inhibitors by Growing into a Solvated Pocket” (Journal of Medicinal Chemistry, 2021)
Converted amounts (≈) assume the structure as drawn. “And” between values parts separate entries of the source, which are not always exact repeats. Equal entries are not always repeated. Where two headings read alike, the source gives them in different places.

Experiments:
BCL6 BTB domain [1] = target: T1, BCL6 BTB domain (Homo sapiens, UniProt P41182); assay: biochemical; details: for BCL6 TR-FRET pIC50 mean: mean of n replicates
Protocol: Supplementary experimental: protein production, purification and crystallography
3C protease cleavage site.
used without cleaving the tag, as a 6His was needed to bind to the anti-6His-Terbium antibody. For
For both plasmid constructs described above, transformed BL21-AI E. coli cells were grown in LB
carried out at 18 °C for 18 hours. Cells were harvested by centrifugation (5500 g for 30 minutes at 4
oC) and stored at -80 °C.
Cells were re-suspended in a buffer composed of 20 mM Tris pH 8, 250 mM NaCl, 1 mM MgCl2, 0.5
Cells were lysed by sonication followed by centrifugation at 21,000 g for 45 minutes at 4 °C. […]
The final protein was assessed for purity
and molar mass by SDS-PAGE and high-resolution mass spectrometry, respectively.
(§1) directly eluted from the HisTrap FF column without HRV-3C treatment, and submitted to Superdex75
gel filtration as described above. […]
2. Supplementary experimental: biological assay conditions
IC50 values were determined using
a sigmoidal four-parameter logistic fit equation.

NMR solubility assay = assay type: physicochemical; details: HEPES buffer, 5% DMSO, room temperature
Protocol: 3. Supplementary experimental: physicochemical assays
The plate was then sealed and incubated at room temperature for 20 hours, without shaking. The plate was centrifuged again for 1 minute at […]
spectrometer equipped with a 5 mm TCI-CryoProbe. […]
deuterated solvent. […] All NMR data were acquired at the […]
contained 16k time-domain data points. Relaxation delay was set to 20 sec. […]

[2] = PAMPA passive permeability pH 7.4; details: for PAMPA7.4: pH 7.4, passive permeability Pe
BCL6 BTB domain [3] = target: T1, BCL6 BTB domain; assay: Rapid X-ray screen: ligand density in extended pocket of BCL6 BTB domain; set-up: made in house; host or cells: E. coli BL21-AI; details: crystals soaked with compound
Text: Furthermore, we speculated that these represent better starting points since the substituent can be modified further to derive additional interactions and more completely fill the extended pocket. […] Instead, we just checked for the presence of ligand density and, in particular, for electron density in the extended pocket.
as §1
gel filtration as described above.
NH2. A stock solution of WVIP peptide at 100 mM in 100 % DMSO was added to a 2 mg/mL solution
This mixture was then concentrated to a final
protein concentration of 4 mg/mL using a centrifugal concentrator with a 3 kDa molecular weight
complex plus 1 μL of a crystallisation solution consisting of 1 M K 2HPO4, 0.7 M NaH2PO4, 75 mM
drops, followed by 10-120 minutes incubation. Crystals were then cryo-protected in a solution
composed of the crystallisation reagent supplemented with 30 % ethylene glycol and cryo-cooled in
concentrated to a final protein concentration of 10 mg/mL using a centrifugal concentrator with a 3
kDa molecular weight cut-off. Crystals were grown at 18 °C in hanging drops composed of 1.5 μL of
and 0.80 M Na/K Tartrate, against 300 μL of crystallisation solution.
and compounds were soaked as described above for the other construct. Crystals were then cryo-
protected in a solution composed of the crystallisation reagent supplemented with 30 % ethylene
glycol and cryo-cooled in liquid nitrogen.
1.5 Crystallographic data collection, processing and refinement
X-ray data were collected at Diamond Light Source, Harwell campus, Oxfordshire, UK, on beamlines
Research, London, UK, on a Rigaku FRX-AFC11-VariMax Cu-VHF-Pilatus300K. Crystals obtained with […]

[4] = TR-FRET IC50 individual replicates, single replicates, italic values used 10nM BCL6, otherwise 1nM BCL6
[5] = read-out: BCL6 TR-FRET Geo Mean IC50, geometric mean of n replicates, supplement
[6] = read-out: TR-FRET IC50, tables and figures
[7] = read-out: TR-FRET IC50 individual replicates, single replicates, italic values used 10nM BCL6, otherwise 1nM BCL6

Row | SMILES | IC50 (BCL6 BTB domain [1]; [4]) | BCL6 TR-FRET pIC50 mean (BCL6 BTB domain [1]) | IC50 (BCL6 BTB domain [1]; [5]) | IC50 (BCL6 BTB domain [1]; [6]) | IC50 (BCL6 BTB domain [1]; [7]) | solubility at 20 h (NMR solubility assay) | PAMPA7.4 [2] | Papp ([2]; PAMPA, pH 7.4) | Ligand density in extended pocket (BCL6 BTB domain [3])
1 | CC(Nc1cc(=O)n(CC2CC2)c2ccc(Nc3ccnc(Cl)c3C#N)cc12)c1ncccn1 (stereo not drawn) [Compound 17a, 2-Chloro-4-((1-(cyclopropylmethyl)-2-oxo-4-((1-(pyrimidin-2-yl)ethyl)amino)-1,2-dihydroquinolin-6-yl)amino)nicotinonitrile] | 230 nM and 790 nM | 6.38 and 6.379 | 418 nM | 420 nM | 410 nM | 72 µM (≈ 34 µg/mL) | 8.5 x10^-6 cms^-1 | – | –
2 | CNC(=O)C(C)Nc1cc(=O)n(C)c2ccc(Nc3ccnc(Cl)c3C#N)cc12 (stereo not drawn) [Compound 13a, 2-((6-((2-Chloro-3-cyanopyridin-4-yl)amino)-1-methyl-2-oxo-1,2-dihydroquinolin-4-yl)amino)-N-methylpropanamide] | – | – | – | – | – | 184 µM (≈ 75.6 µg/mL) | <0.2 x10^-6 cms^-1 | – | –
3 | CNC(=O)[C@@H](C)Nc1cc(=O)[nH]c2ccc(Nc3ccnc(Cl)c3C#N)cc12 [Compound 12b, (R)-2-((6-((2-Chloro-3-cyanopyridin-4-yl)amino)-2-oxo-1,2-dihydroquinolin-4-yl)amino)-N-methylpropanamide] | 300 nM (2×) and 220 nM and 280 nM and 190 nM | 6.60 and 6.596 | 253 nM | 250 nM | 240 nM and 260 nM | 64 µM (≈ 25.4 µg/mL) | no measurable passive permeability | < 0.2 ×10⁻⁶ cm/s | –
4 | Cc1cnc(C(C)Nc2cc(=O)n(C)c3ccc(Nc4ccnc(Cl)c4C#N)cc23)nc1 (stereo not drawn) [Compound 24a, 2-Chloro-4-((1-methyl-4-((1-(5-methylpyrimidin-2-yl)ethyl)amino)-2-oxo-1,2-dihydroquinolin-6-yl)amino)nicotinonitrile] | 60 nM and 90 nM | 7.14 and 7.136 | 70 nM and 73.1 nM | 73 nM | 70 nM | 31 µM (≈ 13.8 µg/mL) | 5.6 x10^-6 cms^-1 | – | –
5 | CCCNc1cc(=O)n(C)c2ccc(Nc3cc(C(=O)O)nc(Cl)c3C#N)cc12 [Compound 11b, 6-Chloro-5-cyano-4-((1-methyl-2-oxo-4-(propylamino)-1,2-dihydroquinolin-6-yl)amino)picolinic Acid] | 1330 nM and 1810 nM | 5.82 and 5.822 | 1510 nM | 1510 nM | 1440 nM and 1490 nM | 40 µM (≈ 16.5 µg/mL) | – | – | –
6 | Cn1cc(-c2cc(=O)[nH]c3ccc(Nc4ccnc(Cl)c4C#N)cc23)cn1 [Compound 8e, 2-Chloro-4-((4-(1-methyl-1H-pyrazol-4-yl)-2-oxo-1,2-dihydroquinolin-6-yl)amino)nicotinonitrile] | 1520 nM and 2190 nM | 5.74 and 5.739 | 1820 nM | 1820 nM | – | – | – | – | Yes
7 | CC(Nc1cc(=O)n(C)c2ccc(Nc3ccnc(Cl)c3C#N)cc12)c1ncn(C)n1 (stereo not drawn) [Compound 13d, 2-Chloro-4-((1-methyl-4-((1-(1-methyl-1H-1,2,4-triazol-3-yl)ethyl)amino)-2-oxo-1,2-dihydroquinolin-6-yl)amino)nicotinonitrile] | – | – | – | – | – | 258 µM (≈ 112 µg/mL) | – | – | –
8 | CC(Nc1cc(=O)n(C)c2ccc(Nc3ccnc(Cl)c3C#N)cc12)c1ncc(C2CC2)cn1 (stereo not drawn) [Compound 24b, 2-Chloro-4-((4-((1-(5-cyclopropylpyrimidin-2-yl)ethyl)amino)-1-methyl-2-oxo-1,2-dihydroquinolin-6-yl)amino)nicotinonitrile] | – | – | – | – | – | 32 µM (≈ 15.1 µg/mL) | 14 x10^-6 cms^-1 | – | –
9 | CN1CCN(c2cc(=O)[nH]c3ccc(Nc4ccnc(Cl)c4C#N)cc23)CC1 [Compound 8c, 2-Chloro-4-((4-(4-methylpiperazin-1-yl)-2-oxo-1,2-dihydroquinolin-6-yl)amino)nicotinonitrile] | 5770 nM and 1240 nM and 2440 nM and 2900 nM | 5.58 and 5.578 | 2640 nM | 2640 nM | 2550 nM | – | – | – | No
10 | N#Cc1c(Nc2ccc3[nH]c(=O)cc(N4CCOCC4)c3c2)ccnc1Cl [Compound 8d, 2-Chloro-4-((4-morpholino-2-oxo-1,2-dihydroquinolin-6-yl)amino)nicotinonitrile] | 2660 nM and 2560 nM and 1470 nM | 5.67 and 5.672 | 2130 nM | 2130 nM | 2100 nM and 2080 nM | – | – | – | No
11 | CNC(=O)[C@H](C)Nc1cc(=O)[nH]c2ccc(Nc3ccnc(Cl)c3C#N)cc12 [Compound 12c, (S)-2-((6-((2-Chloro-3-cyanopyridin-4-yl)amino)-2-oxo-1,2-dihydroquinolin-4-yl)amino)-N-methylpropanamide] | 3390 nM and 2070 nM and 2270 nM and 3400 nM and 3900 nM and 2940 nM and 1540 nM | 5.57 and 5.574 | 2670 nM | 2670 nM | – | 64 µM (≈ 25.4 µg/mL) | – | – | –
12 | C[C@@H](Nc1cc(=O)n(C)c2ccc(Nc3ccnc(Cl)c3C#N)cc12)c1ncccn1 [Compound 13f, (R)-2-Chloro-4-((1-methyl-2-oxo-4-((1-(pyrimidin-2-yl)ethyl)amino)-1,2-dihydroquinolin-6-yl)amino)nicotinonitrile] | – | – | – | – | – | 126 µM (≈ 54.4 µg/mL) | 0.8 x10^-6 cms^-1 | – | –
13 | Cn1c(=O)cc(NCCF)c2cc(Nc3cc(C(=O)O)nc(Cl)c3C#N)ccc21 [Compound 11c, 6-Chloro-5-cyano-4-((4-((2-fluoroethyl)amino)-1-methyl-2-oxo-1,2-dihydroquinolin-6-yl)amino)picolinic Acid] | – | 6.06 and 6.057 | 880 nM and 878 nM | 880 nM | 870 nM and 890 nM and 880 nM | 82 µM (≈ 34.1 µg/mL) | – | – | –
14 | CCNc1cc(=O)n(C)c2ccc(Nc3cc(C(=O)O)nc(Cl)c3C#N)cc12 [Compound 11a, 6-Chloro-5-cyano-4-((4-(ethylamino)-1-methyl-2-oxo-1,2-dihydroquinolin-6-yl)amino)picolinic Acid] | 810 nM and 840 nM and 1120 nM | 6.05 and 6.045 | 901 nM | 900 nM | 890 nM and 870 nM | 237 µM (≈ 94.3 µg/mL) | – | – | –
15 | CC(Nc1cc(=O)n(CC2CCC2)c2ccc(Nc3ccnc(Cl)c3C#N)cc12)c1ncccn1 (stereo not drawn) [Compound 17b, 2-Chloro-4-((1-(cyclobutylmethyl)-2-oxo-4-((1-(pyrimidin-2-yl)ethyl)amino)-1,2-dihydroquinolin-6-yl)amino)nicotinonitrile] | 250 nM and 210 nM and 640 nM | 6.49 and 6.489 | 324 nM | 320 nM | – | 32 µM (≈ 15.6 µg/mL) | 21 x10^-6 cms^-1 | – | –
16 | CNC(=O)C(Nc1cc(=O)[nH]c2ccc(Nc3ccnc(Cl)c3C#N)cc12)C1CC1 (stereo not drawn) [Compound 12d, 2-((6-((2-Chloro-3-cyanopyridin-4-yl)amino)-2-oxo-1,2-dihydroquinolin-4-yl)amino)-2-cyclopropyl-N-methylacetamide] | 1180 nM and 970 nM | 5.97 and 5.967 | 1080 nM | 1080 nM | 1100 nM | 52 µM (≈ 22 µg/mL) | – | – | –
17 | Cn1c(=O)cc(NCC2CC2)c2cc(Nc3cc(C(=O)O)nc(Cl)c3C#N)ccc21 [Compound 11d, 6-Chloro-5-cyano-4-((4-((cyclopropylmethyl)amino)-1-methyl-2-oxo-1,2-dihydroquinolin-6-yl)amino)picolinic Acid] | 270 nM and 420 nM | 6.46 and 6.461 | 350 nM and 346 nM | 350 nM | 360 nM and 350 nM | 324 µM (≈ 137 µg/mL) | – | – | –
18 | Cc1nnc(C(C)Nc2cc(=O)n(C)c3ccc(Nc4ccnc(Cl)c4C#N)cc23)o1 (stereo not drawn) [Compound 13c, 2-Chloro-4-((1-methyl-4-((1-(5-methyl-1,3,4-oxadiazol-2-yl)ethyl)amino)-2-oxo-1,2-dihydroquinolin-6-yl)amino)nicotinonitrile] | 1070 nM and 680 nM | 6.06 and 6.059 | 872 nM | 870 nM | 690 nM and 1180 nM and 840 nM | 247 µM (≈ 108 µg/mL) | <0.2 x10^-6 cms^-1 | – | –
